Experimental data from patent publication US20240025862A1, “SUBSTITUTED N-PHENYLURACILS AND SALTS THEREOF, AND USE THEREOF AS HERBICIDAL ACTIVE SUBSTANCES” (Bayer Aktiengesellschaft, priority 2020, published 2024).

How the values were obtained:
Assay type in all cases: in vivo
[1] = system: Triticum aestivum (TRZAS); assay: Post-emergence crop plant compatibility, greenhouse pot test; settings: 1.25 g/ha, vs untreated controls
Method in brief: (§1)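 Greenhouse-grown crop plants sprayed post-emergence at the one-leaf stage with WP or EC formulations plus 0.5% additive, at 600 l/ha water. Damage rated visually after about 3 weeks versus untreated controls (0% = like control, 100% = dead); suffixes a/b/c denote different dosages.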

[2] = system: Glycine max (GLXMA); assay: as above
Method in brief: as §1

[3] = system: Zea mays (ZEAMX); assay: as above; settings: vs untreated controls
Method in brief: as §1

[4] = system: Polygonum convolvulus (POLCO); assay: Post-emergence herbicidal action, greenhouse pot test
Method in brief: (§2)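 Greenhouse-grown weeds in sandy loam were sprayed post-emergence at the one-leaf stage, 2–3 weeks after sowing. Compounds were formulated as WP or EC in water with 0.5% additive at 600 l/ha, at rates of 20 g/ha or less. Visual rating after about 3 weeks used a scale from 0% (like untreated control) to 100% (plants dead).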

[5] = system: Veronica persica (VERPE); assay: as above
Method in brief: as §2

[6] = system: Amaranthus retroflexus (AMARE); assay: as above; settings: rated visually after about 3 weeks vs untreated controls, 100% = plants have died
Method in brief: as §2

[7] = system: Viola tricolor (VIOTR); assay: as above
Method in brief: as §2

[8] = system: Abutilon theophrasti (ABUTH); assay: as above; settings: rated visually after about 3 weeks vs untreated controls, 100% = plants have died
Method in brief: as §2

[9] = system: Stellaria media (STEME); assay: as above
Method in brief: as §2

[10] = system: Pharbitis purpurea (PHBPU); assay: as above
Method in brief: as §2

[11] = system: Setaria viridis (SETVI); assay: Post-emergence herbicidal action, greenhouse pot test (also comparative test C)
Method in brief: (§3)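 Greenhouse pot plants in sandy loam were sprayed post-emergence at the one-leaf stage (2–3 weeks after sowing) with WP or EC formulations plus 0.5% additive at 600 l/ha water. Activity was rated visually after about 3 weeks versus untreated controls (100% = dead, 0% = like control); rates were 20 g/ha or less, and 5 g/ha or less in the comparative test.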

[12] = system: Echinochloa crus-galli (ECHCG); assay: as above; settings: dosage 20 g/ha
Method in brief: as §3

[13] = system: Alopecurus myosuroides (ALOMY); assay: as above; settings: 20 g/ha, rated visually after about 3 weeks vs untreated controls, 100% = plants have died
Method in brief: as §3

[14] = system: Matricaria inodora (MATIN); assay: as above
Method in brief: as §3

[15] = system: Oryza sativa (ORYSA); assay: Post-emergence crop plant compatibility, greenhouse pot test (also comparative test C); settings: vs untreated controls
Method in brief: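 Rice and other crops sprayed post-emergence at one-leaf stage (2–3 weeks after sowing) with WP or EC formulations plus 0.5% additive at 600 l/ha water. Visual rating about 3 weeks later versus untreated controls (100% = dead, 0% = like control); suffixes a–c denote different doses.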

Post-emergence action against TRZAS (crop plant compatibility) [1]: 20%
Post-emergence action against GLXMA in % ([2]; 1.25 g/ha): 10%
Post-emergence action against GLXMA in % ([2]; 5 g/ha): 20%
Post-emergence action against ZEAMX (crop plant compatibility) ([3]; 1.25 g/ha): 10%
Post-emergence action against ZEAMX (crop plant compatibility) ([3]; 5 g/ha): 20%
Post-emergence action against ORYSA (crop plant compatibility) ([15]; 1.25 g/ha): 10%
Post-emergence action against ORYSA (crop plant compatibility) ([15]; 5 g/ha): 20%
SMILES: Cn1c(C(F)(F)F)cc(=O)n(-c2cc(Sc3ccccc3OCC(=O)OCC3CCOC3)c(Cl)cc2F)c1=O (racemic) [I.1-72]
Post-emergence action against POLCO in % ([4]; dosage 1.25 g/ha): 80%
Post-emergence action against POLCO in % ([4]; dosage 5 g/ha): 100%
Post-emergence action against POLCO in % ([4]; dosage 20 g/ha): 100%
Post-emergence action against VERPE ([5]; 1.25 g/ha): 100%
Post-emergence action against VERPE ([5]; 5 g/ha): 100%
Post-emergence action against VERPE ([5]; 20 g/ha): 100%
Post-emergence action at 1.25 g/ha against AMARE in % ([6]; 1.25 g/ha): 80%
Post-emergence action at 5 g/ha against AMARE in % ([6]; 5 g/ha): 100%
Post-emergence action at 20 g/ha against AMARE in % ([6]; 20 g/ha): 100%
Post-emergence action against VIOTR ([7]; 1.25 g/ha): 100%
Post-emergence action against VIOTR ([7]; 5 g/ha): 100%
Post-emergence action against VIOTR ([7]; 20 g/ha): 100%
Post-emergence action at 1.25 g/ha against ABUTH in % ([8]; 1.25 g/ha): 100%
Post-emergence action at 5 g/ha against ABUTH in % ([8]; 5 g/ha): 100%
Post-emergence action at 20 g/ha against ABUTH in % ([8]; 20 g/ha): 100%
Post-emergence action against STEME ([9]; 5 g/ha): 100%
Post-emergence action against STEME ([9]; 20 g/ha): 100%
Post-emergence action against PHBPU in % ([10]; dosage 1.25 g/ha): 80%
Post-emergence action against PHBPU in % ([10]; dosage 5 g/ha): 100%
Post-emergence action against PHBPU in % ([10]; dosage 20 g/ha): 100%
Post-emergence action against SETVI ([11]; 20 g/ha): 100%
Post-emergence action against SETVI in % ([11]; dosage 1.25 g/ha): 100%
Post-emergence action against SETVI in % ([11]; dosage 5 g/ha): 100%
Post-emergence action against ECHCG in % [12]: 100%
Post-emergence action at 20 g/ha against ALOMY in % [13]: 80%
Post-emergence action against MATIN in % ([14]; dosage 5 g/ha): 90%
Post-emergence action against MATIN in % ([14]; dosage 20 g/ha): 100%
